Test results as given in patent US6090987A, “Metal-ligand complex catalyzed processes” (Union Carbide Chemicals & Plastics Technology Corporation, priority 1998, dated 2000).

Tests used:
[1] = Decomposition of free Ligand F and deactivated complex formation at 145° C. by HPLC (FIG. 3); format: physicochemical; details: for deactivated complex concentration / free Ligand F concentration: 45 psig, treated with 1 ml 1,3-butadiene
Description: A catalyst solution (5 milliliters), 600 parts per million in rhodium and 0.8 weight percent in Ligand F generated as in Example 2 was charged to a 3 ounce Fisher Porter bottle and alternately flushed evacuated with nitrogen, then placed in a 145° C. oil bath under nitrogen (80 psig total pressure) and then monitored by HPLC at 1 and 3 hours for the Ligand F and deactivated complex concentrations. The free Ligand F concentration was 0.75, 0.57 and 0.37 weight percent at 0, 1 and 3 hours, respectively, while the deactivated complex concentration was 0.010, 0.57 and 0.89 weight percent at 0, 1 and 3 hours respectively.
The same procedure as in Example 21 was followed except the catalyst solution was treated with 1 milliliter of 1,3-butadiene and then heated at 145° C. for 3 hours (45 psig total pressure). The free Ligand F concentration measured by HPLC (high pressure liquid chromatography) was 0.75, 0.66, and 0.62 weight percent at 0, 1 and 3 hours, respectively, while the deactivated complex concentration was 0.010, 0.012, and 0.05 weight percent at 0, 1 and 3 hours respectively.

[2] = Residual propylene hydroformylation activity after heat treatment, Ligand D catalyst (Table 1); details: 125° C./50 hours, excess diene checked
Description: About 20 milliliters of the solution was charged to a glass reactor via a syringe after purging the reactor with nitrogen (see Examples 14-20 below). After closing the reactor, the system was again purged with nitrogen and place in an oil bath heated to 100° C. The hydroformylation reaction in each experiment was conducted at a total gas pressure of 160 psig. The target partial pressure of hydrogen, carbon monoxide, and propylene being about 45 psia, 45 psia, and 5 psia respectively, with the remainder being nitrogen. The flows of the feed gases (carbon monoxide, hydrogen, propylene, and nitrogen) were controlled individually with mass flow meters. The feed gases were dispersed into the precursor solution via stainless steel 7-micron filters used as spargers. The unreacted portion of the feed gases stripped out the product aldehydes. Each experiment was operated for 24 hours under the above conditions. The activity is defined as the observed reaction rate divided by the predicted reaction rate. The reaction rates are expressed in terms of gram moles per liter per hour.
The same procedure as in Example 3 was followed except 2 milliliters of 1,3-butadiene was added to the generated catalyst and stirred for 5 minutes. Excess 1,3-butadiene was then removed by alternate evacuation and flushing with nitrogen. The resulting solution was heated at 125° C. as in Example 2, and 20 milliliters of the resulting solution was transferred to a glass reactor as in Example 2 and the activity determined.
The same procedure as in Example 4 was followed except Ligand D (as identified herein) was employed in place of Ligand F. The results are given in Table 1.
The same procedure as in Example 10 was followed except the fresh catalyst solution contained Ligand D in place of Ligand F. The results are given in Table 1.

[3] = Long term catalyst stability, cycling between hydroformylation and simulated vaporizer conditions (Table 2, FIG. 2); details: for Percent Deactivation/Day: butadiene 2 psi
Description: A series of long term catalyst stability experiments were conducted in the glass reactors in a continuous propylene hydroformylation mode. The reactor consisted of a three ounce pressure bottle submersed in an oil bath with a glass front for viewing. In each example about 20 milliliters of a freshly prepared rhodium catalytic precursor solution was charged to the reactor with a syringe after purging the system with nitrogen. Each precursor solution contained 200 parts per million of rhodium (calculated as free rhodium) introduced as rhodium dicarbonyl acetylacetonate, Ligand F and tetraglyme. The amount of Ligand F (free) employed was 0.4 weight percent.
After closing the reactor, the system was again purged with nitrogen and the oil bath was heated to 80° C., in order to furnish the desired hydroformylation. The hydroformylation reaction in each experiment was conducted at a total gas pressure of about 165 psig, the target partial pressure pressures of hydrogen, carbon monoxide, and propylene being about 45 psia, 45 psia, and 5 psia, respectively, the remainder being nitrogen. The flows of the feed gases (carbon monoxide, hydrogen, propylene, and nitrogen) were controlled individually with mass flow meters. The feed gases were dispersed into the precursor solution via stainless steel 7-micron filters used as spargers. The unreacted portion of the feed gases stripped out the product aldehydes. Examples 14, 15 and 16 were conducted at 80° C. for 2 hours. The feed gases were then turned off and either pure nitrogen or an 88 mole percent nitrogen, 12 mole percent butadiene mixture was fed to the reactor (see Table 2). The pressure of the reactor was then let down to the appropriate pressure so that the target butadiene pressure in the reactor could be achieved. The oil bath temperature was then ramped to 125° C. over a 5 minute period. The bath remained at 125° C. for 10 minutes. The bath was then cooled to 80° C. over a 6 minute period. […]

Question: For `C=CC=C` [Butadiene, 1,3-butadiene], which deactivated complex concentration ([1]; 0 hours) is on record?
Answer: 0.010 weight percent

Question: And the “free Ligand F concentration” value ([1]; 0 hours)?
Answer: 0.75 weight percent

Question: And the deactivated complex concentration ([1]; 1 hour)?
Answer: 0.012 weight percent

Question: What about the “free Ligand F concentration” value ([1]; 1 hour) of the same compound?
Answer: 0.66 weight percent

Question: And the deactivated complex concentration ([1]; 3 hours)?
Answer: 0.05 weight percent

Question: And the “free Ligand F concentration” value ([1]; 3 hours)?
Answer: 0.62 weight percent

Question: What about the “decomposition of free Ligand F (FIG. 3)” value ([1]; prior complexation of catalyst with butadiene) of the same compound?
Answer: suppresses decomposition of free Ligand F

Question: What about the “% Activity” value [2] of the same compound?
Answer: 116%

Question: And the “Final Rate” value [2]?
Answer: 1.23 gram moles per liter per hour

Question: And the “influence on the catalyst (FIG. 2)” value ([3]; cycling between 80° C. hydroformylation and 125° C. simulated vaporizer)?
Answer: stabilizing influence

Question: What about the “Percent Deactivation/Day” value ([3]; separation temperature 125° C., butadiene/Rh molar ratio 45) of the same compound?
Answer: 5 Percent/Day

Question: What about the “Percent Deactivation/Day” value ([3]; separation temperature 135° C., butadiene/Rh molar ratio 55) of the same compound?
Answer: 5 Percent/Day
